{"source": "patent US10981940B2", "about": "“Trityl protecting agent” (SEKISUI MEDICAL CO., LTD., priority 2016, dated 2021)", "assay": "Solubility in CPME (cyclopentyl methyl ether), dissolved to saturation at 25° C.", "assay_type": "physicochemical", "settings": "dissolved to saturation in CPME (cyclopentyl methyl ether) at 25° C.", "method": "Peptide used as a model: H-Phe-Leu-Gly-OH\nH-Phe-Leu-Gly-OH and H-Phe-Leu-Gly-O-(TIPS2-4,4′-diClTrt) were synthesized, and the respective compounds were dissolved to saturation in CPME (cyclopentyl methyl ether) at 25° C. Thus, the solubilities were measured.", "note": "Where a SMILES comes first, the peptide text is derived from it."}
{"compound": "CC(C)C[C@H](NC(=O)[C@@H](N)Cc1ccccc1)C(=O)NCC(=O)OC(c1ccc(Cl)cc1)(c1ccc(Cl)cc1)c1cc(OCCCCCCCCCCCO[Si](C(C)C)(C(C)C)C(C)C)cc(OCCCCCCCCCCCO[Si](C(C)C)(C(C)C)C(C)C)c1", "note": "[H-Phe-Leu-Gly-O-(TIPS2-4,4′-diClTrt)]", "values": [{"measurement": "solubility", "result": "≥ 1030", "unit": "mM"}]}
{"compound": "CC(C)C[C@H](NC(=O)[C@@H](N)Cc1ccccc1)C(=O)NCC(=O)O", "note": "[H-Phe-Leu-Gly-OH] (H-Phe-Leu-Gly-OH)", "values": [{"measurement": "solubility", "result": 0.9, "unit": "mM"}]}
